ChEMBL document CHEMBL3044631, “Synthesis of 2-[4,5-dimethyl-1-(phenylamino)-1H-imidazol-2-ylthio]-N-(thiazole-2-yl)acetamide derivatives and their anticancer activities” (2013)

What was measured:
Assay type in all cases: functional
SNB-19 = test: Anticancer activity against Homo sapiens (human) SNB19 cells assessed as cell growth promotion at 10 uM after 48 hr by SRB assay
NCI-H322M = test: Anticancer activity against Homo sapiens (human) NCI-H322M cells after 48 hr by SRB assay
MCF7 = test: Anticancer activity against Homo sapiens (human) MCF7 cells assessed as cell growth promotion at 10 uM after 48 hr by SRB assay
M14 = test: Anticancer activity against Homo sapiens (human) M14 cells after 48 hr by SRB assay; conditions: M14, 48 h
MDA-MB-231 [1] = test: Anticancer activity against Homo sapiens (human) MDA-MB-231/ATCC cells after 48 hr by SRB assay; conditions: MDA-MB-231, 48 h
UACC-257 = test: Anticancer activity against Homo sapiens (human) UACC257 cells after 48 hr by SRB assay; conditions: UACC-257, 48 h
U-251 [2] = test: Anticancer activity against Homo sapiens (human) U251 cells assessed as cell growth promotion at 10 uM after 48 hr by SRB assay
TK-10 = test: Anticancer activity against Homo sapiens (human) TK10 cells after 48 hr by SRB assay; conditions: TK-10, 48 h
BT-549 = test: Anticancer activity against Homo sapiens (human) BT549 cells assessed as cell growth promotion at 10 uM after 48 hr by SRB assay
CAKI-1 [3] = test: Anticancer activity against Homo sapiens (human) CAKI-1 cells after 48 hr by SRB assay; conditions: CAKI-1, 48 h
NCI/ADR-RES = test: Anticancer activity against Homo sapiens (human) NCI/ADR-RES cells assessed as cell growth promotion at 10 uM after 48 hr by SRB assay
HOP-92 = test: Anticancer activity against Homo sapiens (human) HOP92 cells assessed as cell growth promotion at 10 uM after 48 hr by SRB assay
ACHN = test: Anticancer activity against Homo sapiens (human) ACHN cells assessed as cell growth promotion at 10 uM after 48 hr by SRB assay
U-251 [4] = test: Anticancer activity against Homo sapiens (human) U251 cells after 48 hr by SRB assay; conditions: U-251, 48 h
Hs-578T = test: Anticancer activity against Homo sapiens (human) Hs 578T cells after 48 hr by SRB assay
SF-268 = test: Anticancer activity against Homo sapiens (human) SF268 cells assessed as cell growth promotion at 10 uM after 48 hr by SRB assay
HCT-116 = test: Anticancer activity against Homo sapiens (human) HCT116 cells after 48 hr by SRB assay; conditions: HCT-116, 48 h
MDA-MB-468 = test: Anticancer activity against Homo sapiens (human) MDA-MB-468 cells after 48 hr by SRB assay; conditions: MDA-MB-468, 48 h
SK-MEL-2 = test: Anticancer activity against Homo sapiens (human) SK-MEL-2 cells after 48 hr by SRB assay; conditions: SK-MEL-2, 48 h
KM12 = test: Anticancer activity against Homo sapiens (human) KM12 cells after 48 hr by SRB assay; conditions: KM12, 48 h
SK-MEL-5 = test: Anticancer activity against Homo sapiens (human) SK-MEL-5 cells assessed as cell growth promotion at 10 uM after 48 hr by SRB assay
HT-29 = test: Anticancer activity against Homo sapiens (human) HT-29 cells assessed as cell growth promotion at 10 uM after 48 hr by SRB assay
MDA-MB-231 [5] = test: Anticancer activity against Homo sapiens (human) MDA-MB-231/ATCC cells assessed as cell growth promotion at 10 uM after 48 hr by SRB assay
OVCAR-3 = test: Anticancer activity against Homo sapiens (human) OVCAR3 cells assessed as cell growth promotion at 10 uM after 48 hr by SRB assay
SN12C = test: Anticancer activity against Homo sapiens (human) SN12C cells after 48 hr by SRB assay
K562 = test: Anticancer activity against Homo sapiens (human) K562 cells assessed as cell growth promotion at 10 uM after 48 hr by SRB assay
SF-539 [6] = test: Anticancer activity against Homo sapiens (human) SF539 cells after 48 hr by SRB assay; conditions: SF-539, 48 h
PC-3 = test: Anticancer activity against Homo sapiens (human) PC3 cells assessed as cell growth promotion at 10 uM after 48 hr by SRB assay
CAKI-1 [7] = test: Anticancer activity against Homo sapiens (human) CAKI-1 cells assessed as cell growth promotion at 10 uM after 48 hr by SRB assay
SK-OV-3 [8] = test: Anticancer activity against Homo sapiens (human) SKOV3 cells assessed as cell growth promotion at 10 uM after 48 hr by SRB assay
OVCAR-5 = test: Anticancer activity against Homo sapiens (human) OVCAR5 cells assessed as cell growth promotion at 10 uM after 48 hr by SRB assay
OVCAR-4 = test: Anticancer activity against Homo sapiens (human) OVCAR4 cells after 48 hr by SRB assay; conditions: OVCAR-4, 48 h
SK-OV-3 [9] = test: Anticancer activity against Homo sapiens (human) SKOV3 cells after 48 hr by SRB assay; conditions: SK-OV-3, 48 h
SF-539 [10] = test: Anticancer activity against Homo sapiens (human) SF539 cells assessed as cell growth promotion at 10 uM after 48 hr by SRB assay
HCC 2998 = test: Anticancer activity against Homo sapiens (human) HCC2998 cells assessed as cell growth promotion at 10 uM after 48 hr by SRB assay
[11] = read-out: LC50 (the source's name)

What does the source list for `COc1ccc(Nn2c(SCC(=O)Nc3nc(-c4ccc(Cl)cc4)cs3)nc(C)c2C)cc1`?
Activity (SNB-19): 79.24%; GI50 (NCI-H322M): > 100 µM; TGI (NCI-H322M): > 100 µM; CC50 (NCI-H322M; [11]): > 100 µM; Activity (MCF7): 16.16%; GI50 (M14): 3.02 µM; LC50 (M14): > 100 µM; TGI (M14): > 100 µM; GI50 (MDA-MB-231 [1]): 8.37 µM; TGI (MDA-MB-231 [1]): > 100 µM; CC50 (MDA-MB-231 [1]; [11]): > 100 µM; GI50 (UACC-257): 2.97 µM; LC50 (UACC-257): > 100 µM; TGI (UACC-257): 41.1 µM; Activity (U-251 [2]): 43.51%; GI50 (TK-10): 14.8 µM; LC50 (50% lethal concentration) (TK-10): > 100 µM; TGI (TK-10): 80.9 µM; Activity (BT-549): 53.32%; GI50 (CAKI-1 [3]): 2.16 µM; LC50 (concentration killing 50% of cells) (CAKI-1 [3]): > 100 µM; TGI (CAKI-1 [3]): > 100 µM; Activity (NCI/ADR-RES): 23.11%; Activity (HOP-92): 38.65%; Activity (ACHN): 52.04%; GI50 (U-251 [4]): 4.03 µM; LC50 (lethal concentration, 50% net cell kill) (U-251 [4]): > 100 µM; TGI (U-251 [4]): > 100 µM; GI50 (Hs-578T): 11.8 µM; TGI (Hs-578T): > 100 µM; CC50 (Hs-578T; [11]): > 100 µM; Activity (SF-268): 66.13%; GI50 (HCT-116): 2.12 µM; LC50 (HCT-116): > 100 µM; TGI (HCT-116): 14.1 µM; GI50 (MDA-MB-468): 0.57 µM; LC50 (MDA-MB-468): > 100 µM; TGI (MDA-MB-468): 7.73 µM; GI50 (SK-MEL-2): 15.7 µM; LC50 (concentration killing 50% of cells) (SK-MEL-2): > 100 µM; TGI (SK-MEL-2): 66.8 µM; GI50 (KM12): 1.84 µM; LC50 (concentration killing 50% of cells) (KM12): > 100 µM; TGI (KM12): 11.1 µM; Activity (SK-MEL-5): -21.47%; Activity (HT-29): 30.12%; Activity (MDA-MB-231 [5]): 79.71%; Activity (OVCAR-3): 60.75%; GI50 (SN12C): 2.3 µM; LC50 (concentration killing 50% of cells) (SN12C): > 100 µM; TGI (SN12C): 7.52 µM; Activity (K562): 26.88%; GI50 (SF-539 [6]): 4.15 µM; LC50 (concentration killing 50% of cells) (SF-539 [6]): > 100 µM; TGI (SF-539 [6]): > 100 µM; Activity (PC-3): 35.69%; Activity (CAKI-1 [7]): 34.44%; Activity (SK-OV-3 [8]): 81.45%; Activity (OVCAR-5): 111.33%; GI50 (OVCAR-4): 4.02 µM; LC50 (concentration killing 50% of starting cells) (OVCAR-4): > 100 µM; TGI (OVCAR-4): > 100 µM; GI50 (SK-OV-3 [9]): 4.24 µM; LC50 (50% lethal concentration) (SK-OV-3 [9]): > 100 µM; TGI (SK-OV-3 [9]): > 100 µM; Activity (SF-539 [10]): 79.14%; Activity (HCC 2998): 54.24%
